Experimental findings from patent US20150038545A1, “HYDROXYPHENYL PYRROLE COMPOUNDS CONTAINING AN HYDROXAMIC ACID AS HDAC INHIBITORS AND MEDICINAL APPLICATIONS THEREOF” (UNIVERSIDAD DEL PAÍS VASCO, priority 2011, published 2015) are described below.

As a reminder, the IC50 is the concentration that inhibits the measured activity by half.

Structures are written as SMILES.

Test [1] concerns HT-1080. As to the kind of experiment: Cancer cell growth inhibition (CellTiter-Glo), HT-1080. The test is classed as cell-based. The settings on record: Homo sapiens; Fibrosarcoma, HT-1080, 72 h treatment. As to the method: (§1) Cell culture-based assays were used to evaluate the ability of compounds of the invention to inhibit cancer cell growth.
(§2) Cells were obtained from the American Type Culture Collection (ATCC). Cells were cultured at 37° C. with 5% CO2 in the appropriate growth medium (see table below), and harvested respectively during the logarithmic growth period and counted with hemocytometer. The cell viability was examined by trypan blue exclusion. Cell concentrations were adjusted to 5.56×10^4 cells/ml with respective medium.
(§3) Stock solutions of test compounds and positive drugs Doxorubicin (Zhejiang, Haizheng, China), Cisplatin (Nanjing Zhiyao, China) and Mitomycin (Zhejiang, Haizheng, China) were prepared in dimethyl sulphoxide (DMSO) or PBS at 20 mM.
(§4) In order to determine the IC50 for each compound, experiments were carried out in 96-well plates and the cell lines seeded at a density of 5,000 cells/well. […] All treatments were performed in triplicate. 10 μl of drug solution was added to each well and incubated for 72 hours. At the end of the incubation, 100 μl of the CellTiter-Glo Reagent were added to each well and the contents were mixed for 2 munites on an orbital shaker to induce cell lysis. The plate was incubated at room temperature for 10 minutes to stabilize luminiscent signal, and luminiscent was recorded. […] In order to calculate IC50 values, dose-responsive curves were fitted using nonlinear regression model with a sigmoidal dose response.
A general note: In ATP-based viability assays light output follows the ATP content of the culture.

Test [2] concerns PC-3. As to the kind of experiment: Cancer cell growth inhibition (CellTiter-Glo), PC-3. The note with it: Homo sapiens; Prostate Cancer, PC-3, 72 h treatment. The format is cell-based, Human. The protocol: as §1, §2, §3, §4
Test [3] concerns SK-HEP-1. As to the kind of experiment: Cancer cell growth inhibition (CellTiter-Glo), SK-HEP-1. The test is classed as cell-based. The settings on record: Homo sapiens, SK-HEP1; Liver Cancer, SK-HEP-1, 72 h treatment. The protocol: as §1, §2, §3, §4
Test [4] has as its system 786-O. As to the kind of experiment: Cancer cell growth inhibition (CellTiter-Glo), 786-O. The format is cell-based, Human. The settings on record: Homo sapiens, 786-0, Kidney Cancer, 72 h treatment. As to the method: as §1, §2, §3, §4
In test [5] the test system is MDA-MB-231. Briefly: Cancer cell growth inhibition (CellTiter-Glo), MDA-MB-231. The format is cell-based. The note with it: Homo sapiens; Breast Cancer, MDA-MB-231, 72 h treatment. As to the method:
as §1, §2, §3, §4

Test [6] has as its target T1, Human HDAC5 (Homo sapiens, UniProt Q9UQL6).
T1 construct: Full length with Nterminal GST tag, MW=150 kDa; GST (N); purchased BioMol, Hamburg, Germany; host or cells: Sf9 cells, baculovirus
Briefly: In vitro HDAC5 inhibition, fluorogenic peptide assay. The settings on record: for IC50: read-out: IC50 (nM) of enzyme activity HDAC5. The test is classed as biochemical. As to the method: All HDAC assays were performed using acetylated AMC-labeled peptide substrate: • Substrate for isoforms HDAC1, 2, 3, 4, 5, 6, 7, 9, 10, 11 and HeLa nuclear extract assays: Acetylated fluorogenic peptide from p53 residues 379-382 (RHKKAc) (BioMol. Cat. # KI-104). • Substrate for HDAC8 assays: Acetylated fluorogenic peptide from p53 residues 379-382 (RHKAcKAc) (BioMol. Cat. # KI-178).
Enzymes: • HDAC1 assay: 75 nM Human HDAC1 (GenBank Accession No. NM_004964): Full length with C-terminal GST tag, MW=79.9 kDa, expressed by baculovirus expression system in Sf9 cells (BioMol. Cat. # SE-456). • HDAC2 assay: 5 nM Human HDAC2 (GenBank Accession No. Q92769): Full length with C-terminal His tag, MW=60 kDa, expressed by baculovirus expression system in Sf9 cells (BioMol. Cat. # SE-500). • HDAC3 assay: 2.3 nM Human HDAC3/NcoR2 (GenBank Accession No. NM_003883 for HDAC3, GenBank Accession No.NM_006312 for NcoR2): Complex of human HDAC3, full length with C-terminal His tag, MW=49.7 kDa, and human NCOR2, N-terminal GST tag, MW=39 kDa, co-expressed in baculovirus expression system (BioMol. Cat. # SE-507). • HDAC4 assay: 266 nM Human HDAC4 (GenBank Accession No. NM_006037): Amino acids 627-1085 with N-terminal GST tag, MW=75.2 kDa, expressed in baculovirus expression system (BioMol, Hamburg, Germany). • HDAC5 assay: 588 nM Human HDAC5 (GenBank Accession No. NM_001015053): Full length with Nterminal GST tag, MW=150 kDa, expressed by baculovirus expression system in Sf9 cells (BioMol, Hamburg, Germany). • HDAC6 assay: 13 nM Human HDAC6 (GenBank Accession No. BC069243): Full length with N-terminal GST tag, MW=159 kDa, expressed by baculovirus expression system in Sf9 cells (BioMol. Cat. # SE-508). • HDAC7 assay: 962 nM Human HDAC7 (GenBank Accession No. AY302468): Amino acids 518-end with N-terminal GST tag, MW=78 kDa, expressed in baculovirus expression system (BioMol, Hamburg, Germany). • HDAC8 assay: 119 nM Human HDAC8 (GenBank Accession No. NM018486): Full length, MW=42 kDa, expressed in an E. coli expression system (BioMol. […]
The reactions were carried out in a 96-well microplate for fluorometry in a 50 μl reaction volume. […] The reaction was allowed to develop for 45 minutes at 30° C. with 5% CO2; then the fluorescent signal was measured with an excitation wavelength at 360 nm and an emission wavelength at 460 nm in a microplate-reading fluorometer (GeminiXS; Molecular Devices, Sunnyvale, Calif.). […] IC50 was calculated by fitting the experimental data to a dose-response curve. […]

T1 sequence (Q9UQL6 1-1123 isoform Q9UQL6-3): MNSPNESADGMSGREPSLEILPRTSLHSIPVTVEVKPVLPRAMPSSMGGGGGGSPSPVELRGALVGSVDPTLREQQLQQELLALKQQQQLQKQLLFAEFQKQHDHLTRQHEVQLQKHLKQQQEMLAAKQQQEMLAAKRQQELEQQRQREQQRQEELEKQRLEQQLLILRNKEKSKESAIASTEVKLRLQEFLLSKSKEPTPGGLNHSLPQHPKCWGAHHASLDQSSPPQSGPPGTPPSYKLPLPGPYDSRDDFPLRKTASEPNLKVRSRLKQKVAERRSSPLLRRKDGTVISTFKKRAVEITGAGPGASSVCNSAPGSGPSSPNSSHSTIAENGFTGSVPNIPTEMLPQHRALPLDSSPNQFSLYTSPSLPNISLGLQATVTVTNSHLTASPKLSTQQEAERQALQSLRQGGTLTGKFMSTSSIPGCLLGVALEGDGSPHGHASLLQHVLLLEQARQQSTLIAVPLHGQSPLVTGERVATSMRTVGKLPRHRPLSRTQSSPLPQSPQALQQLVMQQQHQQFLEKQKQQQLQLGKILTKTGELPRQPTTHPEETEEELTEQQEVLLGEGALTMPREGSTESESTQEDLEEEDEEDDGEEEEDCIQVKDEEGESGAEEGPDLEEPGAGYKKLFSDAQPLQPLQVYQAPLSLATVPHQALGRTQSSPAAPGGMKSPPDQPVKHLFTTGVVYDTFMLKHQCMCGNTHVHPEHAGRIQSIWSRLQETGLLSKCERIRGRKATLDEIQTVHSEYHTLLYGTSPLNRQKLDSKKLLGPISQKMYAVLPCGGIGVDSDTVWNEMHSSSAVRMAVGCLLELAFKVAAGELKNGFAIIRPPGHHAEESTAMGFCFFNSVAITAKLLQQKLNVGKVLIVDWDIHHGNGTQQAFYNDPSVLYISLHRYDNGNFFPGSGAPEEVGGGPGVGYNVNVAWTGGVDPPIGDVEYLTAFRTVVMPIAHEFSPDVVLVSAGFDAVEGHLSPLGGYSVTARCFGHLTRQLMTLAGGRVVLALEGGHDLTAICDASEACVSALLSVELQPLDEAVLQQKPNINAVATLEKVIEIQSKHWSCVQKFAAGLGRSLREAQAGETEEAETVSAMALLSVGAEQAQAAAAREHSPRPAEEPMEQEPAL

`O=C(CCCCCNC(=O)c1[nH]c(-c2ccccc2)cc1-c1ccc(O)cc1)NO` [Example 1, N-(6-(hydroxyamino)-6-oxohexyl)-3-(4-hydroxyphenyl)-5-phenyl-1H-pyrrole-2-carboxamide]: the IC50 in test [1] came out at 3 µM; in test [2], 17.9 µM; in test [3], 4.03 µM; in test [4], 3.28 µM; in test [5], 4.33 µM.

For the molecule `O=C(CCCCCNC(=O)c1[nH]c(-c2ccc(O)cc2)cc1-c1ccoc1)NO` [Example 5, 3-(3-furyl)-N-(5-(hydroxycarbamoyl)pentyl)-5-(4-hydroxy-phenyl)-1H-pyrrole-2-carboxamide], the half-maximal inhibitory concentration (IC50) in test [6] amounted to 14 nM; in test [1] it was 3.12 µM; in test [2], 25.8 µM; in test [3], 1.84 µM; in test [4] it was 3.14 µM; in test [5], 8.02 µM.

Turning to `O=C(CCCCCNC(=O)c1[nH]c(-c2ccc(O)cc2)cc1-c1ccccc1)NO` [Example 2, N-(6-(hydroxyamino)-6-oxohexyl)-5-(4-hydroxyphenyl)-3-phenyl-1H-pyrrole-2-carboxamide], the IC50 amounted to 3.24 µM in test [1]; 26.9 µM in test [2]; 6.04 µM in test [3]; 3.51 µM in test [4]; 9.03 µM in test [5].

As to `O=C(CCCCCNC(=O)c1[nH]c(-c2ccc(O)cc2)cc1-c1ccsc1)NO` [Example 6, N-(5-(hydroxycarbamoyl)pentyl)-5-(4-hydroxyphenyl)-3-(3-thienyl)-1H-pyrrole-2-carboxamide], the 50% inhibitory concentration (IC50) in test [6] came out at 43 nM; in test [1] it was 3.1 µM; in test [2], 26.8 µM; in test [3] it was 3.13 µM; in test [4], 2.7 µM; in test [5], 7.89 µM.

For `COc1ccc(-c2cc(-c3ccccc3)[nH]c2C(=O)NCCCCCC(=O)NO)cc1` [Compound A, N-[6-(hydroxyamino)-6-oxohexyl]-3-(4-methoxyphenyl)-5-phenyl-1H-pyrrole-2-carboxamide, reference compound], the “Selectivity against HDAC6 (IC50 HDACx/IC50 HDAC6) HDAC5” value in test [6] (IC50 HDAC5/IC50 HDAC6) turned out to be 32.7. The half-maximal inhibitory concentration (IC50) in test [6] was determined as 655 nM.
